Results on twelve substances are retold here after patent EP4707393A1, “DOUBLE-STRANDED SIRNA, CONJUGATE THEREOF AND USE THEREOF” (CMS Research & Development Pte. Ltd., priority 2023, dated 2024).

The term pEC50 denotes the EC50 on a negative log10 scale, so that one unit is a factor of ten. A lower pEC50 goes with a large EC50.

pEC50: −log10 of the molar value.

In the data set the test system is human LPA gene (Genbank number: NM_005577.4). The experiment in a line: Inhibitory activity against LPA mRNA, psiCHECK-2 dual-luciferase reporter vector in Huh7 cells. In kind it is cell-based. The settings on record: Huh7 cells transfected with LPA_psiCHECK-2 plasmid, RNAiMAX transfection. The protocol:
A stock solution was prepared by dissolving in PBS and stored at -20 °C.
The human LPA gene (Genbank number: NM_005577.4) was cloned into the psiCHECK™-2 vector.
Huh7 cells were cultured in DMEM (Gibco-11995-065, 500 mL) medium, supplemented with FBS (ExCellBio-FSP500, 57 mL), Penicillin-Streptomycin solution (Hyclone-SV30010, 5.7 mL), GlutaMAX™ (Gibco-35050-061, 5.7 mL) and Non-Essential Amino Acids Solution (Gibco-11140050, 5.7 mL).
On Day 1, a method for transfection of the LPA_PSICHECK (TM)-2 plasmid is briefly described as follows: Huh7 cells were washed with DPBS, followed by digestion with 0.05% trypsin, gently pipetted into single cells in DMEM containing 10% FBS, and counted. Plasmid DNA was transferred into Huh7 cells using Fugene HD. The transfected cells were seeded into 96-well plates at a density of 10,000 cells per well, with 100 µL culture medium per well. The cells were incubated overnight in a 5% CO2 incubator at 37 °C.
On Day 2, the test compounds were diluted serially with PBS to 3 concentrations.
RNAiMAX transfection reagent was prepared by blending homogeneously with Opti-MEM at a ratio of RNAiMAX: Opti-MEM=3:47 in a 15 mL centrifuge tube as needed. The compounds were mixed with the RNAiMAX/Opti-MEM (1:1) and incubated for 15 min. The compound-containing RNAiMAX/Opti-MEM mixture was diluted 10-fold with fresh medium and blended homogeneously.
The medium in each well was aspirated, and then 100 µL of the fresh compound-containing medium was added, and then incubated in a 5% CO2, 37 °C incubator.
Experimental procedures refer to DUAL-GLO® Dual Luciferase Assay System instructions, briefly described as follows: Taking out the cells from the incubator, aspirating and discarding the supernatant, adding 75µL fresh culture medium and 75µL detection reagent, shaking for 10 minutes in the dark, and after the cells had been fully lysed, transfering100µL sample to an opaque whiteboard for detecting the Firefly luminescence signal; adding 50 µL Dual-Glo®Stop & Glo® test reagent to each well and detecting the Renilla luciferase signal after shaking for 10 minutes in the dark. The ratio of the reporter signal to the internal control reporter signal was calculated for each well.
[formula] % Inhibition = (1-Sampleratio/RNAiMAXcontrolratio) × 100% [formula]
A general note: Reporter assays use an easily measured gene product as a stand-in for the process of interest.
“Z18: siRNA conjugate: sense SEQ ID NO:36, ligand D01 at 3' end of sense strand, antisense SEQ ID NO:61 (sense NNCCCCTTATTGTTATACN; antisense ATCCCTCGTANAACAATAAGGGGCTGTT; 2'-OMe/2'-F modified, ligand at sense 3' end, full pattern not given here)” had a negative logarithm of the EC50 (pEC50) of 9.60.
As for “Z23: siRNA conjugate: sense SEQ ID NO:39, ligand D18 at 3' end of sense strand, antisense SEQ ID NO:64 (sense NNCCCCTTATTGTTATACGN; antisense TCTCGTANAACAATAAGGGGCTGTT; 2'-OMe/2'-F modified, ligand at sense 3' end, full pattern not given here)”, the figure is 9.92; as for “Z37: siRNA conjugate: sense SEQ ID NO:51, ligand D18 at 3' end of sense strand, antisense SEQ ID NO:76 (sense CCTGCCAAGCTTGGTCATCTA; antisense TAGATGNCCAAGCTTGGCNGGTT; ligand D18 at sense 3' end; listed as RNA; modified_base 1..2: mod_base = OTHER; note = 2'-O-methylcytidine; modified_base 3: mod_base = OTHER; note = 2'-O-methyluridine; modified_base 4: mod_base = OTHER; note = 2'-O-methylguanosine; modified_base 5..6: mod_base = OTHER; note = 2'-O-m; modified_base 1: mod_base = OTHER; note = E-type vinylphosphonate-modified 2'-O-methyluridine; modified_base 2: mod_base = OTHER; note = 2'-deoxyadenosine; modified_base 4: mo)”, 9.64.
As for “Z21: siRNA conjugate: sense SEQ ID NO:36, ligand D01 at 3' end of sense strand, antisense SEQ ID NO:64 (sense NNCCCCTTATTGTTATACN; antisense TCTCGTANAACAATAAGGGGCTGTT; 2'-OMe/2'-F modified, ligand at sense 3' end, full pattern not given here)”, the figure is 9.36; as for “Z25: siRNA conjugate: sense SEQ ID NO:41, ligand D18 at 3' end of sense strand, antisense SEQ ID NO:64 (sense NNCCCCTTATTGTTATACGNGA; antisense TCTCGTANAACAATAAGGGGCTGTT; ligand D18 at sense 3' end; listed as RNA; modified_base 1: mod_base = OTHER; note = n is invAb; modified_base 2: mod_base = OTHER; note = n is R; modified_base 3..6: mod_base = OTHER; note = 2'-O-methylcytidine; modified_base 7: mod_base = OTHER; note = 2'-O-methyluridine; modified_ba; modified_base 3: mod_base = OTHER; modified_base 4: mod_base = OTHER; note = 2'-fluorocytidine; modified_base 5: mod_base = OTHER; note = 2'-O-methylg)”, 9.17.
As for “Z26: siRNA conjugate: sense SEQ ID NO:42, ligand D18 at 3' end of sense strand, antisense SEQ ID NO:65 (sense CCCTTATTGTTANACGA; antisense TCTCGTATNACAATAAGGGGCTT; ligand D18 at sense 3' end; listed as RNA; modified_base 1..2: mod_base = OTHER; note = 2'-O-methylcytidine; modified_base 3: mod_base = OTHER; modified_base 4: mod_base = OTHER; note = 2'-O-methyluridine; modified_base 5: mod_base = OTHER; note = 2'-fluorou; modified_base 1: mod_base = OTHER; note = 2'-fluorocytidine; note = 2'-O-methylg)”, the figure is 8.55; as for “Z22: siRNA conjugate: sense SEQ ID NO:38, ligand D18 at 3' end of sense strand, antisense SEQ ID NO:64 (sense NNCCCCTTATTGTTATACNA; antisense TCTCGTANAACAATAAGGGGCTGTT; 2'-OMe/2'-F modified, ligand at sense 3' end, full pattern not given here)”, 9.55.
“Z50: siRNA conjugate: sense SEQ ID NO:51, ligand D01 at 3' end of sense strand, antisense SEQ ID NO:86 (sense CCTGCCAAGCTTGGTCATCTA; antisense TCTAGATNACCAAGCTTGGCAGG; ligand D01 at sense 3' end; listed as RNA; modified_base 1..2: mod_base = OTHER; note = 2'-O-methylcytidine; modified_base 3: mod_base = OTHER; note = 2'-O-methyluridine; modified_base 4: mod_base = OTHER; note = 2'-O-methylguanosine; modified_base 5..6: mod_base = OTHER; note = 2'-O-m; modified_base 1: mod_base = OTHER; note = 2'-fluoroadenosine; modified_base 5: mod_base = OTHER; note = 2'-O-methyl)” had a pEC50 of 9.39.
“Z51: siRNA conjugate: sense SEQ ID NO:49, ligand D01 at 3' end of sense strand, antisense SEQ ID NO:87 (sense CAGCCCCTTATTGTTATACGA; antisense TCGTATNACAATAAGGGGCNGTT; ligand D01 at sense 3' end; listed as RNA; modified_base 1: mod_base = OTHER; note = 2'-O-methylcytidine; modified_base 2: mod_base = OTHER; note = 2'-O-methyladenosine; modified_base 3: mod_base = OTHER; note = 2'-O-methylguanosine; modified_base 4..7: mod_base = OTHER; note = 2'-O-me; note = 2'-O-methyluridine; note = 2'-deoxycytidine; modified_base 4: mod_base = OTHER; note = 2'-O-methyl)”: the pEC50 was 9.51.
The value for “Z52: siRNA conjugate: sense SEQ ID NO:53, ligand D01 at 3' end of sense strand, antisense SEQ ID NO:88 (sense CTTGCCAAGCTTGGTCATCTA; antisense TCTAGATGNCCAAGCTTGGCAAG; ligand D01 at sense 3' end; listed as RNA; modified_base 1: mod_base = OTHER; note = 2'-O-methylcytidine; modified_base 2: mod_base = OTHER; note = 2'-O-methyluridine; modified_base 3: mod_base = OTHER; modified_base 4: mod_base = OTHER; note = 2'-O-methylgua; note = 2'-fluoroadenosine; modified_base 5: mod_base = OTHER; note = 2'-O-methyl)” was 9.85; that for “Z49: siRNA conjugate: sense SEQ ID NO:51, ligand D01 at 3' end of sense strand, antisense SEQ ID NO:85 (sense CCTGCCAAGCTTGGTCATCTA; antisense NAGATGNCCAAGCTTGGCNGGTT; ligand D01 at sense 3' end; listed as RNA; modified_base 1..2: mod_base = OTHER; note = 2'-O-methylcytidine; modified_base 3: mod_base = OTHER; note = 2'-O-methyluridine; modified_base 4: mod_base = OTHER; note = 2'-O-methylguanosine; modified_base 5..6: mod_base = OTHER; note = 2'-O-m; modified_base 1: mod_base = OTHER; note = n is B36; modified_base 2: mod_base = OTHER; note = 2'-deoxyadenosine; note = 2'-O-methyladenosine)” was 9.20; that for “Z1: siRNA conjugate: sense SEQ ID NO:27, ligand D08 at 3' end of sense strand, antisense SEQ ID NO:56 (sense CCCTTATTGTTATACG; antisense ATCCCTCGTANAACAATAAGGGGCTGTT; 2'-OMe/2'-F modified, ligand at sense 3' end, full pattern not given here)” was 9.92.
